Earlier results, collected in US11369617B2, “Prostacyclin analogue formulations” (CAMURUS AB, priority 2016, dated 2022).

Conditions: regular s.c. administration

administration-site pain, patients experiencing it: 85 % of patients
SMILES: CCCCC[C@H](O)CC[C@@H]1[C@H]2Cc3cccc(OCC(=O)O)c3C[C@H]2C[C@H]1O [treprostinil]
withdrawals due to adverse events (almost all due to site pain): 23 % of the long-term study population
